The values below come from patent publication US20100135903A1, “USE OF A DNA DAMAGING AGENT AND A LIGAND FOR THE TREATMENT OF CANCER” (MEDVET SCIENCE PTY. LTD., priority 2006, published 2010).

Assay [1] concerns PANC-1 cells. The assay can be described thus: MTS proliferation assay of PANC-1 cells. Format: cell-based, human. As to the method:
FIG. 50 depicts that gemcitabine and TSA synergise to reduce proliferation rates among PANC-1 cells in vitro. PANC-1 cells (2×10^4 cells) were seeded in flat bottom 96-well plates overnight using phenol-free RPMI-1640 medium containing 10% FCS (medium). A serial dilution of 2×10^4 cells was used to construct a standard curve for the MTS assay. Triplicate wells were incubated with increasing concentrations of TSA (nM) with or without the addition of increasing concentrations of gemcitabine. Three identical plates were incubated for 24, 48 or 72 h then medium was decanted and fresh medium (100 μL) containing 20 μL MTS/PMS substrate was added to all wells. Assays were performed according to the manufacturer's instructions. The change in the absorbance reading over time was calculated for each condition in units of change per 12 h (upper panel), which was converted to units of cell number change per 12 h (lower panel) using a standard curve of the absorbance reading […] (r^2=0.99).
For orientation: Tetrazolium assays rely on reduction of a dye to a coloured formazan, in cell work by metabolically active cells.

For another assay, the system named is Raji. The assay can be described thus: Binding of La-specific mAb to apoptotic human cancer cell lines (Raji). Particulars: 2 μM staurosporine, 20 μg/mL etoposide or 0.1 μg/mL vincristine, 3B9-FITC staining.
A further assay deals with HeLa. Put plainly: Binding of La-specific mAb to apoptotic human cancer cell lines (HeLa). Particulars: 0.5 μM staurosporine, 20 μg/mL etoposide or 0.1 μg/mL vincristine, 3B9-FITC staining.
In another assay the test system is U2OS. Put plainly: Binding of La-specific mAb to apoptotic human cancer cell lines (U2OS). Format: cell-based. Particulars: 0.5 μM staurosporine, 20 μg/mL etoposide, 3B9-FITC staining. The procedure:
Direct immunofluorescence staining was performed using 1-2×10^5 cells at 10^6 cells/mL for 30 min at room temperature in PBS containing 0.1% BSA and 5 μg/mL of FITC-conjugated mAb. […] Cell viability was assessed by the exclusion of PI detected using the FL-2 (585-nm filter) or the exclusion of 7-AAD detected using the FL-3 (>650 nm filter).

Another assay has as its system Jurkat. Put plainly: Binding of La-specific mAb to apoptotic human cancer cell lines (Jurkat). Particulars: 0.5 μM staurosporine, 20 μg/mL etoposide or 0.1 μg/mL vincristine, 3B9-FITC staining.
Assay [2] relates to PANC-1 cells. Put plainly: Cell death and 3B9 binding of PANC-1 cells treated with gemcitabine and TSA in vitro. Format: cell-based, human. Conditions: compared with control or single agent. The procedure: FIG. 15 depicts that 3B9 binding to dead PANC-1 cells is augmented after combination treatment with gemcitabine and TSA produced additive cytotoxicity and DNA-damaging effects. PANC-1 cells were incubated with increasing concentrations of gemcitabine in the absence (clear columns) or presence of 100 ng/mL (hatched columns) or 200 ng/mL (filled columns) of TSA. Analysis was done for viability using 7-AAD (A), 3B9-specific binding (B) and DNA damage using γH2AX staining (C). Data are presented as mean±SEM from three independent experiments. Photomicrographs show PANC-1 cells treated with gemcitabine and TSA (+) or not (−), which were stained with γH2AX-specific mAb and 7-AAD (D).
Apoptosis or cell death was induced by adding cytotoxic drugs to culture media at the specified concentrations. […] Control (untreated) cells had ≧90% viability determined by PI or trypan blue staining (data not shown). […]
Indirect immunofluorescence staining was performed using purified mouse antibodies at 5 μg/mL for 30 min. at room temperature (RT) in PBS followed by Alexa488-conjugated anti-mouse IgG at 2 μg/mL for 30 min. at RT in PBS. […] Cells were washed then incubated (30 min. at RT) with 2 μg/mL of FITC-conjugated anti-rabbit IgG antibody, which was detected using the FL-1 channel. […] Flow cytometry data were analyzed using WinMDI v2.8 (Scripps Research Institute, La Jolla, Calif.). […]

The next assay concerns apoptotic Jurkat cells. Put plainly: MDC inhibition of protein crosslinking and 3B9 binding in cisplatin-treated Jurkat cells. Format: cell-based, human. Conditions: for IC50: Homo sapiens, read-out: concentration of MDC required to inhibit half of the binding of 3B9. The procedure:
FIG. 18 depicts that La antigen is crosslinked during apoptosis. (A) Jurkat cells incubated in 20 μg/mL cisplatin were removed at specified time points and incubated for 10 min. in 1% Triton X-100 solution before 3B9 binding analysis. Data are presented as density plots of staining with 3B9 vs. 7-AAD. (B) Immunoblots of cell lysates of control and cisplatin-treated Jurkat cells were probed with 3B9 for expression of La (top panels) or actin as a loading control (bottom panels) at specified times. (C) Jurkat cells incubated in the absence or presence of increasing concentrations of cisplatin were labeled with cadaverine-biotin added at 100 μM for 48 h. Cells were stained with strepatavidin-Alexa488 and analyzed by flow cytomtery. Data shown are MFI±SEM (n=3). (D) Jurkat cells incubated in the absence or presence of 20 μg/mL cisplatin were incubated with increasing concentrations of MDC. Cells were analyzed at specified times (24 □, 48 ? and 72 h ▪) for sulforhodamine 101 staining. Inset summarizes the dependence of the protein cross-linking ratio on MDC concentration at 48 h (—) and 72 h ( . . . ) after cisplatin treatment of Jurkat cells. (E) Jurkat cells incubated with cisplatin in the absence or presence of increasing concentrations of MDC were stained with 3B9. 3B9-specific binding is presented as Net MFI±SEM (n=3). Inset summarizes the dependence of 3B9-specific binding on MDC concentration at 24 h (—), 48 h (— —) and 72 h ( . . . ) after cisplatin treatment of Jurkat cells. Data are representative of three identical and independent assays, which produced similar results.
Transglutaminase 2 (TG2)-mediated protein-protein crosslinking in apoptotic cells was investigated using a modification of a previously described method. Briefly, cells were resuspended at 1×10^6 cells/mL in PBS containing 1% Triton X-100, 0.2 μg/mL sulforhodamine 101 and 0.1 μM SytoxGreen. Samples were vortexed and incubated for 5 min. before analysis by flow cytometry where fluorescence from Sytox Green and sulforhodamine were detected using FL-1 and FL-3, respectively. The degree of crosslinking in apoptotic cells was calculated as the ratio of the MFI of sulforhodamine staining in apoptotic cells to the MFI in control cells (protein crosslinking ratio). In other experiments, cells were incubated with PBS or 1% Triton X-100 in PBS for 10 min. at RT with intermittent vortexing.
To test inhibition of protein crosslinking, cultured cells were incubated with increasing concentrations of the competitive TG2inhibitor, monodansylcadaverine (MDC). MDC was dissolved in DMSO at 25 mM and then diluted in culture media before it was added to cell cultures at the specified concentrations for the specified duration. […]

Where two headings read alike, the source gives them in different places.

Consider `Nc1ccn([C@@H]2O[C@H](CO)[C@@H](O)C2(F)F)c(=O)n1` [gemcitabine], for which, in the assay with PANC-1 cells [1] (gemcitabine added at a TSA concentration of 50 nM), the “proliferation of PANC-1 cells” value is “completely inhibited”. Moreover, the “numbers of PANC-1 cells in the cultures” value in the assay with PANC-1 cells [1] (gemcitabine added at a TSA concentration of 200 nM) is on record as “significantly reduced the numbers”.
`CN[C@@H]1C[C@H]2O[C@@](C)([C@@H]1OC)n1c3ccccc3c3c4c(c5c6ccccc6n2c5c31)C(=O)NC4` [Staurosporine, staurosporine]: the “percentage of PI+ and 3B9+ events after subtraction of control (PI+ and Sal5+) events” value (from here on “percentage of PI+ and 3B9+ events”) was determined as 28.8% in the assay with Raji, 62.5% in the assay on HeLa, 65.9% in the assay with U2OS and 56.1% with Jurkat.
As to `CC[C@]1(O)C[C@H]2CN(CCc3c([nH]c4ccccc34)[C@@](C(=O)OC)(c3cc4c(cc3OC)N(C=O)[C@H]3[C@@](O)(C(=O)OC)[C@H](OC(C)=O)[C@]5(CC)C=CCN6CC[C@]43[C@@H]65)C2)C1` [Vincristine, vincristine], the “percentage of PI+ and 3B9+ events” value was found to be 9.8% in the assay with Raji, 18.6% with HeLa and 12.1% in the assay on Jurkat.
Consider `CC(/C=C/C(=O)NO)=C\[C@@H](C)C(=O)c1ccc(N(C)C)cc1` [TSA, trichostatin A], for which the “proliferation of PANC-1 cells” value in the assay on PANC-1 cells [1] (TSA alone) is “inhibited proliferation”. Further, the “3B9-specific binding to PANC-1 cells” value with PANC-1 cells [2] is reported as “did not alter 3B9 binding”.
As for `COc1cc([C@@H]2c3cc4c(cc3[C@@H](O[C@@H]3O[C@@H]5CO[C@@H](C)O[C@H]5[C@H](O)[C@H]3O)[C@H]3COC(=O)[C@H]23)OCO4)cc(OC)c1O` [Etoposide, etoposide], the “percentage of PI+ and 3B9+ events” value in the assay with Raji amounted to 21.3%; with HeLa, 36.1%; with U2OS, 28.0%; in the assay with Jurkat it was 22.6%.
With `CN(C)c1cccc2c(S(=O)(=O)NCCCCCN)cccc12` [MDC, monodansylcadaverine], the IC50 amounted to 260 ± 1 µM with apoptotic Jurkat cells (24 h after cisplatin treatment of Jurkat cells), 110 ± 1 µM in the assay on apoptotic Jurkat cells (48 h after cisplatin treatment of Jurkat cells) and 150 ± 1 µM in the assay with apoptotic Jurkat cells (72 h after cisplatin treatment of Jurkat cells). In addition, the “effect on protein crosslinking (sulforhodamine crosslinking ratio)” value with apoptotic Jurkat cells (cisplatin-treated Jurkat cells) was “dose-dependent inhibitory effect”.
